Entries after “also recorded” stand apart in the source; their conditions may differ. Counter-ions that a name gives are not always drawn.
Assays:
[1] = Solubility noted for preparing the formulations
[2] = test system: chronic constriction injury (CCI) rats; assay: Mechanical allodynia (von Frey monofilaments, 50% paw withdrawal threshold) in chronic constriction injury model; type: in vivo, Wistar rats; details: days 8 and 15, vs control (PBS)
Procedure: (§1) The behavioral animal model of chronic constriction injury (“CCI”) was chosen to evaluate the efficacy of an analgesic and anti-inflammatory agent as a pain and inflammation treatment. This model may mimic pain associated with sciatica in humans.
(§2) Fifty-Six male Wistar rats (Charles River Laboratories, Wilmington, Mass.) weighing 300±26 g the day of surgery (Day 1) were used in this study. All experiments were conducted in accordance with the International Association for the Study of Pain guidelines and approved by the Institutional Animal Care and Use Committee at SRI International, Inc (Menlo Park, Calif.). CCI was induced according to the method of Bennett and Xie. Briefly, each animal was anesthetized by intraperitoneal (IP) injection of sodium pentobarbital at a dose of 60 mg/kg. The animal's common sciatic nerve was exposed and freed from adherent tissue at mid-thigh by separating the biceps femoris muscles by blunt dissection. Four loose ligatures were placed 1 mm apart, using chromic gut suture (4-0 absorbable suture; Jorgensen Laboratories, Inc., Loveland, Colo.).
(§3) Seven animals were randomly assigned to each treatment group.
Mechanical allodynia was measured using von Frey monofilaments (Stoelting, Wood Dale, Ill.) with varying stiffness (2.0-15.0 g) on Days −1, 8, and 15 as described previously (see FIG. 4). Animals were placed on a perforated metallic platform and allowed to habituate to their surroundings for a minimum of 15 minutes before testing. The 50% paw withdrawal threshold response was determined by a sequential increasing and/or decreasing of the stimulus strength (the “up-down method” of Dixon). Each filament was applied with enough pressure to cause a buckling effect. Absence of a paw lifting/withdrawal response after 5 seconds prompted the use of the filament of next higher weight. Paw withdrawal indicating a positive response prompted the use of a weaker filament. After the initial response (i.e., paw withdrawal), the testing continued for four additional measurements and was used to calculate the response threshold. Four consecutive positive responses received a score of 0.25 g, and five consecutive negative responses (i.e., no paw withdrawal) received a score of 15 g. The 50% paw withdrawal threshold was calculated using the formula: 10(Xf+kd)/10,000, where Xf is the final von Frey filament used (log units), k is a value that analyzes the response pattern (taken from the table published by Chaplan et al.), and d is the mean difference between stimuli (log units). The mean and standard error of the mean (SEM) were determined for each treatment group.

[3] = test system: chronic constriction injury (CCI) rats; assay: Thermal paw withdrawal latency (Hargreaves test) in chronic constriction injury model; type: in vivo, Wistar rats; details: days 7 and 14, vs control (PBS)
Procedure: as §1, §2, §3
Withdrawal latencies to a noxious thermal stimulus were measured according to the Hargreaves test using a plantar analgesia instrument (Stoelting, Wood Dale, Ill.) on Days −2, 7, and 14 (see FIG. 3). The radiant infrared heat source stimulus intensity was set to IR50 and the cut-off time was set at 15 seconds. Rats were placed on a glass platform and allowed to habituate to the testing chambers for a minimum of 15 minutes prior to each testing session. The thermal stimulus was applied to the plantar surface of the paw. Thermal thresholds were defined as the latency in seconds at the first pain behavior, which includes paw withdrawal, flinching, biting and/or licking of the stimulated paw. The readings for all animals were averaged and the mean and standard error of the mean (SEM) were determined for each treatment group.

[4] = 2 mg/kg/day IP daily, listed as sulindac

SMILES: COc1cccc([C@]2(O)CCCC[C@H]2CN(C)C)c1 (racemic) [Tramadol, (±)cis-2-[(dimethylamino)methyl]-1-(3-methoxyphenyl)cyclohexanol hydrochloride]
- solubility ([1]; saline, saline or isotonic): ≥ 25 mg/mL

SMILES: N=C(N)NCCSSCCNC(=N)N [GED, guanidinoethyldisulfide]
- solubility in organic solvents ([1]; printed 'irganic solvents'): insoluble
- solubility ([1]; water): ≤ 5 mg/mL
- mechanical thresholds (von Frey): reducing pain and/or inflammation ([2]; 1 mg/kg/day IP daily): effective at reducing pain and/or inflammation for 15 days; also recorded: particularly effective at reducing pain and/or inflammation
- mechanical thresholds (von Frey): reducing pain and/or inflammation ([2]; 3 mg/kg/day IP daily): effective at reducing pain and/or inflammation for 15 days
- thermal paw withdrawal latency: reducing pain and/or inflammation ([3]; 1 mg/kg/day IP daily): effective at reducing pain and/or inflammation for 14 days
- thermal paw withdrawal latency: reducing pain and/or inflammation ([3]; 3 mg/kg/day IP daily): effective at reducing pain and/or inflammation for 14 days; also recorded: particularly effective at reducing pain and/or inflammation

SMILES: CC[C@H](C)C(=O)O[C@H]1C[C@@H](C)C=C2C=C[C@H](C)[C@H](CC[C@@H]3C[C@@H](O)CC(=O)O3)[C@H]21 [Lovastatin, lovastatin]
- Soluble in DMSO ([1]; DMSO): up to 40 mg/kg
- mechanical thresholds (von Frey): reducing pain and/or inflammation ([2]; 0.3 mg/kg/day IP daily): effective at reducing pain and/or inflammation for 15 days
- mechanical thresholds (von Frey): reducing pain and/or inflammation ([2]; 3 mg/kg/day IP daily): effective at reducing pain and/or inflammation for 15 days
- mechanical thresholds (von Frey): reducing pain and/or inflammation ([2]; 3 mg/kg/day IP daily, listed as lovastatin): particularly effective at reducing pain and/or inflammation
- thermal paw withdrawal latency: reducing pain and/or inflammation ([3]; 0.3 mg/kg/day IP daily): effective at reducing pain and/or inflammation for 14 days
- thermal paw withdrawal latency: reducing pain and/or inflammation ([3]; 3 mg/kg/day IP daily): effective at reducing pain and/or inflammation for 14 days; also recorded: particularly effective at reducing pain and/or inflammation

SMILES: CC1=C(CC(=O)O)c2cc(F)ccc2C1=Cc1ccc([S+](C)[O-])cc1 (centres unmarked) [Sulindac, 2-[6-fluoro-2-methyl-3-[(4-methylsulfinylphenyl)-methylidene]inden-1-yl]-acetic acid]
- mechanical thresholds (von Frey): reducing pain and/or inflammation ([2]; 2 mg/kg/day IP daily): particularly effective at reducing pain and/or inflammation
- mechanical thresholds (von Frey): reducing pain and/or inflammation [2, 4]: effective at reducing pain and/or inflammation for 15 days
- thermal paw withdrawal latency: reducing pain and/or inflammation ([3]; 2 mg/kg/day IP daily): particularly effective at reducing pain and/or inflammation
- thermal paw withdrawal latency: reducing pain and/or inflammation [3, 4]: effective at reducing pain and/or inflammation for 14 days

— patent US20090263489A1, “ANALGESIC AND ANTI-INFLAMMATORY COMPOSITIONS AND METHODS FOR REDUCING, PREVENTING OR TREATING PAIN AND INFLAMMATION” (Warsaw Orthopedic, Inc., priority 2008, published 2009)
